≈ marks a conversion by molar mass, not a printed value. Where two headings read alike, the source gives them in different places.
Legend:
M. tuberculosis H37Rv [1] = test: Minimum lethal concentration (MLC); type: cell-based; conditions: Mycobacterium tuberculosis, NA = no activity, read-out: MLC against M. tuberculosis H37Rv
S. aureus [2] = test: MBC by subculturing; type: cell-based; conditions: Staphylococcus aureus
Method: (§1) The minimum bactericidal concentration (MBC) and minimum fungicidal concentration (MFC) of the synthesized benzimidazole derivatives was determined by subculturing 100 µl of culture from each tube that remained clear in MIC determination onto sterilized petri-plates containing fresh agar medium. The petri-plates were incubated and analyzed for microbial growth visually.

S. typhi [3] = test: MBC by subculturing; type: cell-based; conditions: Salmonella enterica, read-out: MBC S. typhi
Method: as §1

E. coli [4] = test: MBC by subculturing; type: cell-based; conditions: Escherichia coli
Method: as §1

B. subtilis [5] = test: MBC by subculturing; type: cell-based
Method: as §1

B. cereus [6] = test: MBC by subculturing; type: cell-based
Method: as §1

C. albicans [7] = test: MFC by subculturing; type: cell-based
Method: as §1

A. niger [8] = test: MFC by subculturing; type: cell-based
Method: as §1

S. typhi [9] = test: Tube dilution MIC; type: cell-based; conditions: Salmonella enterica, 24 h, read-out: MIC S. typhi
[10] = tested on: HCT116 (human colorectal) cell line; test: Sulforhodamine-B (SRB) cytotoxicity assay; type: cell-based
S. aureus [11] = test: Tube dilution MIC; conditions: Staphylococcus aureus, 24 h, read-out: MIC S. aureus
E. coli [12] = test: Tube dilution MIC; conditions: Escherichia coli, 24 h, read-out: MIC E. coli
[13] = target: mycobacterial isocitrate lyase (Mycobacterium tuberculosis, UniProt P9WKK7); test: Mycobacterial isocitrate lyase (ICL) assay; type: biochemical, M. tuberculosis H37Rv; conditions: read-out: Percent inhibition of enzyme, M. ICL activity
Method: The compounds found potent in in vivo evaluation were assayed for inhibition of mycobacterial enzymes viz., isocitrate lyase, pantothenate synthetase and chorismate mutase.
Isocitrate lyase activity was assayed according to the protocol reported by Dixon and Kornberg (glyoxylate phenyl hydrazone formation) at 10 μM of the compounds.

C. albicans [14] = test: microbe, parasite or virus in culture; conditions: Candida albicans, 48 h, read-out: MIC C. albicans
[15] = In vivo LD50, ED50 and toxic dose in mice models; conditions: mouse, dose that killed 50% of the mice population within the group
Method: The LD50 and ED50 were determined for the active compounds in mice models infected with Mycobacterium H37Rv (Table 4). […] Thus, ED50 of 1.34 mg/kg was considered safe for each of the compounds. It was observed that this dose was effective and safe for mice in different groups before infecting the mice models with specific TB bacteria as no mortality of any single animal was recorded.
The LD50 (lethal dose) and ED50 (optimum/effective dose) doses were determined for the active compounds in mice models infected with Mycobacterium H37Rv via ethical permission no., NCFT/EC/16/2313 assigned to Collaborative Research Group (CRG), NCFT, New Delhi, India.

M. tuberculosis H37Rv [16] = test: MIC by microplate alamar blue assay; type: cell-based; conditions: Mycobacterium tuberculosis, NA = no activity, read-out: MIC against M. tuberculosis H37Rv
[17] = tested on: MCF7 (human breast cancer) cell line; test: Sulforhodamine-B (SRB) cytotoxicity assay; type: cell-based
B. cereus [18] = test: Tube dilution MIC; conditions: Bacillus cereus, 24 h, read-out: MIC B. cereus
[19] = tested on: M. tuberculosis H37Rv (NCFT/TB/537); test: Well diffusion susceptibility test (zone of inhibition); type: cell-based; conditions: Mycobacterium tuberculosis, 672 h, read-out: Diameter of zone of inhibition against H37Rv (NCFT/TB/537), wells of 8 mm, 50 µg/ml test compound, 25 µg/ml standard drug, 4 weeks, NA = no activity
A. niger [20] = test: microbe, parasite or virus in culture; conditions: Aspergillus niger, 168 h, read-out: MIC A. niger
B. subtilis [21] = test: Tube dilution MIC; conditions: Bacillus subtilis, 24 h, read-out: MIC B. subtilis
[22] = tested on: Gram positive as well as Gram negative bacterial species; test: Tube dilution MIC, bacteria overall; type: cell-based
[23] = Bacillus subtilis, read-out: MBC B. subtilis
[24] = Bacillus cereus, read-out: MBC B. cereus
[25] = Candida albicans, read-out: MFC C. albicans
[26] = Aspergillus niger, read-out: MFC A. niger

Chain of mycobacterial isocitrate lyase (P9WKK7 whole entry): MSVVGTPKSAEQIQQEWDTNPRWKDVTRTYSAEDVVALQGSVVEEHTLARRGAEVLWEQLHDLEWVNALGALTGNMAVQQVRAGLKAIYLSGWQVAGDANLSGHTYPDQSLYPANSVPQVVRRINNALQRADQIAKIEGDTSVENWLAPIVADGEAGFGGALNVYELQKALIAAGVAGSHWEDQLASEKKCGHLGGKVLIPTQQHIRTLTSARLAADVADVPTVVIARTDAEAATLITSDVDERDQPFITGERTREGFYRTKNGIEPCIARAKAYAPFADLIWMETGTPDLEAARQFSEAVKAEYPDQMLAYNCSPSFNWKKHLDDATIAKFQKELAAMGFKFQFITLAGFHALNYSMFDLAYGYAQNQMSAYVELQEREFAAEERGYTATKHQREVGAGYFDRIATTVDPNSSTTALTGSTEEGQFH

O=C(CSc1nc2ccccc2n1C(=O)c1ccccc1)Nc1ccc(F)cc1 [Compound 3, 2-(1-Benzoyl-1H-benzo[d]imidazol-2-ylthio)-N-(4-fluorophenyl)acetamide]
MBC (M. tuberculosis H37Rv [1]): 25 µg/mL (≈ 61.7 µM)
MBC (S. aureus [2]): > 50 µg/mL
MBC (S. typhi [3]): > 50 µg/mL
MBC (E. coli [4]): 50 µg/mL (≈ 123 µM)
MBC (B. subtilis [5]; [23]): > 50 µg/mL
MBC (B. cereus [6]; [24]): > 50 µg/mL
MFC (C. albicans [7]; [25]): 25 µg/mL (≈ 61.7 µM)
MFC (A. niger [8]; [26]): > 50 µg/mL
MIC (S. typhi [9]): 31 µM (≈ 12.6 µg/mL)
IC50 ([10]; HCT-116, read-out: IC50 HCT116): 197 µM
MIC (S. aureus [11]): 31 µM (≈ 12.6 µg/mL)
MIC (E. coli [12]): 31 µM (≈ 12.6 µg/mL)
inhibition at 10 µM [13]: 52.6%
MIC (C. albicans [14]): 15 µM (≈ 6.08 µg/mL)
LD50 [15]: 1.87 mg/kg
MIC (M. tuberculosis H37Rv [16]): 12.5 µg/mL (≈ 30.8 µM)
IC50 ([17]; MCF7, read-out: IC50 MCF7): 24.7 µM
MIC (B. cereus [18]): 31 µM (≈ 12.6 µg/mL)
zone of inhibition at 50 µg/mL [19]: > 20 mm
MIC (A. niger [20]): 31 µM (≈ 12.6 µg/mL)
MIC (B. subtilis [21]): 31 µM (≈ 12.6 µg/mL)

O=C(CSc1nc2ccccc2n1C(=O)c1ccccc1)Nc1ccccc1Cl [Compound 4, 2-(1-Benzoyl-1H-benzo[d]imidazol-2-ylthio)-N-(2-chlorophenyl)acetamide]
MBC (M. tuberculosis H37Rv [1]): 25 µg/mL (≈ 59.3 µM)
MBC (S. aureus [2]): 50 µg/mL (≈ 119 µM)
MBC (S. typhi [3]): 50 µg/mL (≈ 119 µM)
MBC (E. coli [4]): 50 µg/mL (≈ 119 µM)
MBC (B. subtilis [5]; [23]): > 50 µg/mL
MBC (B. cereus [6]; [24]): > 50 µg/mL
MFC (C. albicans [7]; [25]): 25 µg/mL (≈ 59.3 µM)
MFC (A. niger [8]; [26]): > 50 µg/mL
MIC (S. typhi [9]): 30 µM (≈ 12.7 µg/mL)
IC50 ([10]; HCT-116, read-out: IC50 HCT116): 59.4 µM
MIC (S. aureus [11]): 30 µM (≈ 12.7 µg/mL)
MIC (E. coli [12]): 30 µM (≈ 12.7 µg/mL)
inhibition at 10 µM [13]: 48.5%
MIC (C. albicans [14]): 15 µM (≈ 6.33 µg/mL)
LD50 [15]: 1.96 mg/kg
MIC (M. tuberculosis H37Rv [16]): 12.5 µg/mL (≈ 29.6 µM)
IC50 ([17]; MCF7, read-out: IC50 MCF7): 35.6 µM
MIC (B. cereus [18]): 30 µM (≈ 12.7 µg/mL)
zone of inhibition at 50 µg/mL [19]: > 20 mm
MIC (A. niger [20]): 30 µM (≈ 12.7 µg/mL)
MIC (B. subtilis [21]): 30 µM (≈ 12.7 µg/mL)

O=C(CSc1nc2ccccc2n1C(=O)c1ccccc1)Nc1cc(Cl)ccc1Cl [Compound 6, 2-(1-Benzoyl-1H-benzo[d]imidazol-2-ylthio)-N-(2,5-dichlorophenyl)acetamide]
MBC (M. tuberculosis H37Rv [1]): 25 µg/mL (≈ 54.8 µM)
MBC (S. aureus [2]): > 50 µg/mL
MBC (S. typhi [3]): 25 µg/mL (≈ 54.8 µM)
MBC (E. coli [4]): > 50 µg/mL
MBC (B. subtilis [5]; [23]): > 50 µg/mL
MBC (B. cereus [6]; [24]): > 50 µg/mL
MFC (C. albicans [7]; [25]): 50 µg/mL (≈ 110 µM)
MFC (A. niger [8]; [26]): > 50 µg/mL
MIC (S. typhi [9]): 27 µM (≈ 12.3 µg/mL)
IC50 ([10]; HCT-116, read-out: IC50 HCT116): 83.3 µM
MIC (S. aureus [11]): 27 µM (≈ 12.3 µg/mL)
MIC (E. coli [12]): 27 µM (≈ 12.3 µg/mL)
inhibition at 10 µM [13]: 56.8%
MIC (C. albicans [14]): 14 µM (≈ 6.39 µg/mL)
LD50 [15]: 1.86 mg/kg
MIC (M. tuberculosis H37Rv [16]): 12.5 µg/mL (≈ 27.4 µM)
IC50 ([17]; MCF7, read-out: IC50 MCF7): 89.8 µM
MIC (B. cereus [18]): 27 µM (≈ 12.3 µg/mL)
zone of inhibition at 50 µg/mL [19]: > 20 mm
MIC (A. niger [20]): 27 µM (≈ 12.3 µg/mL)
MIC (B. subtilis [21]): 27 µM (≈ 12.3 µg/mL)

O=C(CSc1nc2ccccc2n1C(=O)c1ccccc1)Nc1ccccc1Br [Compound 7, 2-(1-Benzoyl-1H-benzo[d]imidazol-2-ylthio)-N-(2-bromophenyl)acetamide]
MBC (M. tuberculosis H37Rv [1]): 28 µg/mL (≈ 60 µM)
MBC (S. aureus [2]): 50 µg/mL (≈ 107 µM)
MBC (S. typhi [3]): > 50 µg/mL
MBC (E. coli [4]): 50 µg/mL (≈ 107 µM)
MBC (B. subtilis [5]; Bacillus subtilis; read-out: MBC B. subtilis): > 50 µg/mL
MBC (B. cereus [6]; Bacillus cereus; read-out: MBC B. cereus): > 50 µg/mL
MFC (C. albicans [7]; Candida albicans; read-out: MFC C. albicans): 50 µg/mL (≈ 107 µM)
MFC (A. niger [8]; Aspergillus niger; read-out: MFC A. niger): > 50 µg/mL
MIC (S. typhi [9]): 27 µM (≈ 12.6 µg/mL)
IC50 ([10]; HCT-116, SRB assay, HCT116 cell line, read-out: IC50 HCT116): 96.5 µM
MIC (S. aureus [11]): 27 µM (≈ 12.6 µg/mL)
MIC (E. coli [12]): 27 µM (≈ 12.6 µg/mL)
MIC (C. albicans [14]): 27 µM (≈ 12.6 µg/mL)
MIC (M. tuberculosis H37Rv [16]): 15 µg/mL (≈ 32.2 µM)
IC50 ([17]; SRB assay, MCF7 cell line, read-out: IC50 MCF7): 55.8 µM
MIC (B. cereus [18]): 27 µM (≈ 12.6 µg/mL)
MIC against Gram positive as well as Gram negative bacterial species [22]: 0.027 µM/ml
zone of inhibition at 50 µg/mL [19]: 10 mm
MIC (A. niger [20]): 27 µM (≈ 12.6 µg/mL)
MIC (B. subtilis [21]): 27 µM (≈ 12.6 µg/mL)
